Source: ChEMBL document CHEMBL1139650, “In silico fragment-based discovery of DPP-IV S1 pocket binders” (Bioorg Med Chem Lett, 2006)
pIC50: −log10 of the molar value.

Molecular target: Dipeptidyl peptidase 4 (Homo sapiens, UniProt P27487)
Experiment: Inhibition of DPP4

Sequence of Dipeptidyl peptidase 4 (P27487 whole entry): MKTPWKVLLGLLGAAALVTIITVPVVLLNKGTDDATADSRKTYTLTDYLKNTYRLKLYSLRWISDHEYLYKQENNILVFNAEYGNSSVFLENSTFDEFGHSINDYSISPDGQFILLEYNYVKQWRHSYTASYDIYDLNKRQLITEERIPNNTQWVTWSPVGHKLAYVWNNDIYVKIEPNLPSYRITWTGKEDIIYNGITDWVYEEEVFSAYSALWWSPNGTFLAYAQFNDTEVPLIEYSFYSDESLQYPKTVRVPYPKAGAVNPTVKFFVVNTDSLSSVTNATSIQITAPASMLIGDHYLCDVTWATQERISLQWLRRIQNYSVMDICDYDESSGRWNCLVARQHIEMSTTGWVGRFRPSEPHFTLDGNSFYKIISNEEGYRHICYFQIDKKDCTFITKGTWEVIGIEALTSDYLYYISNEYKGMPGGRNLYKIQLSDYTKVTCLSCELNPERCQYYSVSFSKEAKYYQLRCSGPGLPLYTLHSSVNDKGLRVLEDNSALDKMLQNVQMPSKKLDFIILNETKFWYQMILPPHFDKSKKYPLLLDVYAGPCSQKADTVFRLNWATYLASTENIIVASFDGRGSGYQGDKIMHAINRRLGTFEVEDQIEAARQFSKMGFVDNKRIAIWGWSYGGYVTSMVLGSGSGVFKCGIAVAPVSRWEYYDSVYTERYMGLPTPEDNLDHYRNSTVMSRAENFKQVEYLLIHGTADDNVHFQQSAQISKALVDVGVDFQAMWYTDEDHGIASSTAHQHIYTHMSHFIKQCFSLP

SMILES | pIC50
N[C@H](c1ccccc1)[C@@H](N)c1ccccc1 | 4.12
N[C@H](c1ccccc1)[C@H](N)c1ccccc1 | 4.35
